Reference: patent US9980982B2, “HE4 based therapy for malignant disease” (Women & Infants Hospital of Rhode Island, priority 2011, dated 2018)
Oligonucleotides are written 5' to 3', each unit as a sugar letter and its base; * is a phosphorothioate linkage, no mark a phosphodiester; rarer units and linkages stand in square brackets, end groups in braces. Plain capitals give the bases only. Starred links: 1 amine or outer side, 2 acyl side, 3 side chain; linkers in the order of their positions; H or OH if unused. Positions of bridges follow the written chain, without caps; N, C: chain ends. Non-standard residues stand in square brackets, D forms with d. Residues, ends and D or L forms follow the SMILES beside them. Chains are numbered I, II in the order given. Actinocin(9to1) = Cc1c2oc3c(C)ccc(C(=O)[*:1])c3nc-2c(C(=O)[*:2])c(N)c1=O; NMeV = CN[C@H](C(=O)O)C(C)C; d = 2'-deoxy (DNA); Sar = CNCC(=O)O

How the values were obtained:
[1] = tested on: ovarian cancer (SKOV-3) cells xenograft; experiment: Antisense HE4 oligos in ovarian cancer (SKOV-3) xenografted animals; type: in vivo, nude mice; conditions: 7 mg/kg bwt, IP, 5 days/week; for effect on tumor progression / tumor burden: within 28 days, versus scrambled, sense oligos and vehicle
Description: Left: Effect of treatment of antisense HE4 oligos (“HE4 antisense 1” corresponds to SEQ ID NO:2 and “HE4 antisense 2” corresponds to SEQ ID NO:4; red and violet, respectively), sense HE4 oligos (green), vehicle, and scrambled sequences (7 mg/kg bwt, IP) 5 days/week on the tumor size in animals xenografted with ovarian cancer (SKOV-3) cells. Right: the weight of the animals treated with oligos progressed as the day progressed, and no toxicity was observed.
HE4 overexpression promoted ovarian cancer burden in animals (FIG. 24), and caused strong chemoresistance against cisplatin in animals (FIG. 26). Thus, a set of antisense oligos were designed to knockdown the expression levels of HE4 in animals xenografted with ovarian cancer (SKOV-3) cells. Treatment at 5 days/week with antisense HE4 phosphorothio oligos suppressed the tumor progression in animals compared to scrambled or sense HE4 oligos and vehicle treated control within 28 days of the treatment.

[2] = tested on: HE4; experiment: HE4 levels in SKOV-3 cell lysates and media by sandwich ELISA; type: cell-based, Human; conditions: for effect on HE4 levels in SKOV-3: cytotoxic agents, 24 hrs, serum free DMEM, versus untreated controls; for effect on HE4 levels in media or cell-lysate of SKOV-3 cells: growth factors and cytokines, 6 hours
Description: (§1) Various agents were examined by RT-PCR or by a sandwich ELISA. […] HE4 levels in cell lysates and media were evaluated by a sandwich ELISA.
Cells were grown for 24 h in 100 mm cell culture dishes (Corning, New York, N.Y.), supernatant collected and lysates of washed and scraped cells prepared as described previously (Lange T S et al., 2007Chem Biol Drug Design, 70:302-10). Total protein of lysates was quantitated (BioRad protein estimation kit, Hercules, Calif.), and HE4 levels were determined using the HE4 EIA assay (Fujirebio Diagnostics, Malvern, Pa.), a solid-phase, non-competitive immunoassay using two mouse monoclonal antibodies, directed against two epitopes in the C-WFDC domain. Calibration curves were used to measure HE4 concentrations in both cell lysates and culture media allowing for the calculation of production and secretion of HE4 in pmol/g total cellular protein.
FIG. 15 is a bar chart showing that treatment with growth factors and cytokines affect the HE4 levels in ovarian cancer cells. SKOV-3 cells (1 million each) were seeded in 100 mm dishes and incubated overnight. The cells were treated with an array of factors (IL-6, Insulin, TNFa, EGF) and incubated for another 6 hours. The media was collected and cells were lysed using the cell lysis buffer. The HE4 content in the media or in the cell-lysate was examined by a HE4 sandwich ELISA kit.

[3] = tested on: HE4 overexpressing SKOV-3 clones HE4C1, -C3, -C7; experiment: MTS cell viability assay, HE4 overexpressing SKOV-3 clones; type: cell-based, Human; conditions: 24 h; for viability at 20 µM: Homo sapiens, SK-OV-3, 24 h, 20 μM doxorubicin, untreated = 100%; for response of HE4 overexpressing SKOV-3 clones to drug treatment (viability, words): clones HE4C1, -C3, -C7, compared to parental SKOV-3
Description: An HE4 overexpressing vector for stable expression was engineered by inserting a coding sequence of human WAP four-disulfide core domain 2 (WFDC2) cDNA into a multiple cloning site of an eukaryotic expression vector, pCMV6-entry (Origene, Rockville, Md.). Transfection of the constructs in SKOV-3 cells was performed using Lipofectamine 2000 (Invitrogen, Carlsbad, Calif.) according to the manufacturer's instructions. Stably transfected cells were selected by resistance to G-418 (500 μg/ml) (Research Products International, Mount Prospect, Ill.), applied 48 h after transfection and continued during cell culture. G-418 resistant cells were resuspended (density 5 cells/ml) in complete medium/G-418 and seeded as 200 μl/well on a 96 well cell culture plate (Corning, New York, N.Y.). Cells growing from single colonies (cloned; stable transfection) were isolated.
(§2) Cell growth and viability of cell lines (complete medium, 24 h incubation) was determined by the CellTiter 96® AQueous One Solution Assay (Promega Corp, Madison, Wis.) following the manufacturer's recommendations with modifications (Lange T S et al., 2008 PLOS One, 3(5):e2303). Experiments are expressed as the mean of triplicate determinations (X±SD) of a representative experiment in OD (cell growth) or % of absorbance by drug-treated versus untreated cells [=100%] (cell viability). Cisplatin (CDDP), paclitaxel, doxorubicin and camptothecin (CPT) were purchased from (Sigma Aldrich, St. Louis, Mo.).
(§3) To analyze the potential biological relevance of elevated HE4 production for ovarian cancer cells the efficacy of commonly used anticancer drugs was examined in a viability assay (FIG. 5). SKOV-3 clones or parental cells were treated with cisplatin, paclitaxel, doxorubicin, or camptothecin for 24 h in various concentrations as indicated and the cytotoxicity evaluated.

[4] = tested on: SKOV-3 cells; experiment: MTS cell viability assay, parental/wild-type SKOV-3 cells; type: cell-based, Human; conditions: 24 h
Description: as §2, §3

[5] = tested on: HE4 mRNA; experiment: HE4 mRNA expression in SKOV-3 cells by RT-PCR; type: cell-based, Human; conditions: stimulation in serum free DMEM (TNF 10 nM, Insulin 100 nM, EGF 10 nM, IL-6 10 nM)
Description: as §1
Total RNA isolation from cells was carried out using TRIzol and Reverse transcription on 3 μg RNA using SuperScript III transcriptase according to the manufacturers protocol (Invitrogen, Carlsbad, Calif.) followed by 30 cycles of PCR using the following primer pairs: HE4 sense, 5′-AGG AGC AGA GAA GAC TGG-3′ (SEQ ID NO: 27); HE4 antisense, 5′-TTA TCA TTG GGC AGA GAG-3′ (SEQ ID NO: 28); GAPDH sense, 5′-AAT CCC ATC ACC ATC TTC C-3′ (SEQ ID NO: 29); GAPDH antisense, 5′-GTCCTTCCACGATACCAAAG-3′ (SEQ ID NO: 30). Cycle conditions: 94° C./1 min; 55° C./2 min, 72° C./2 min. PCR products were separated on 2% agarose gels containing 0.4 mg/ml of ethidium bromide.

## 5′ A*C*A*C*C*T*T*C*C*C*A*C*A*G*C*C*A*T*T 3′ (DNA ACACCTTCCCACAGCCATT; DNA, all phosphorothioate, methylation of C not given here) [SEQ ID NO:5]
[1]
  effect on tumor progression / tumor burden: showed tumor inhibitory activity

## 5′ A*C*A*C*C*T*T*C*C*C*A*C*A*G*C*C*A*T*T*G 3′ [SEQ ID NO:4]
[1]
  toxicity in animals (body weight): did not cause any toxicity
  effect on tumor progression / tumor burden: strong reduction in tumor burden
[1]; listed as HE4 antisense 2
  effect on tumor progression / tumor burden: suppressed the progression of ovarian tumor growth

## 5′ G*A*C*A*C*C*T*T*C*C*C*A*C*A*G*C*C*A*T 3′ (DNA GACACCTTCCCACAGCCAT; DNA, all phosphorothioate, methylation of C not given here) [SEQ ID NO:3]
[1]
  effect on tumor progression / tumor burden: showed tumor inhibitory activity

## 5′ G*A*C*A*C*C*T*T*C*C*C*A*C*A*G*C*C*A*T*T 3′ (DNA dG*dA*dC*dA*dC*dC*dT*dT*dC*dC*dC*dA*dC*dA*dG*dC*dC*dA*dT*dT; antisense) [SEQ ID NO:1]
[1]
  effect on tumor progression / tumor burden: showed tumor inhibitory activity

## 5′ G*A*C*A*C*C*T*T*C*C*C*A*C*A*G*C*C*A*T*T*G 3′ [SEQ ID NO:2]
[1]
  toxicity in animals (body weight): did not cause any toxicity
[1]; listed as HE4 antisense 1
  effect on tumor progression / tumor burden: suppressed the progression of ovarian tumor growth

## Cc1c2oc3c(C)ccc(C(=O)N[C@@H]4C(=O)N[C@H](C(C)C)C(=O)N5CCC[C@H]5C(=O)N(C)CC(=O)N(C)[C@@H](C(C)C)C(=O)O[C@@H]4C)c3nc-2c(C(=O)N[C@@H]2C(=O)N[C@H](C(C)C)C(=O)N3CCC[C@H]3C(=O)N(C)CC(=O)N(C)[C@@H](C(C)C)C(=O)O[C@@H]2C)c(N)c1=O [Actinomycin-D] (I: T[dV]P[Sar][NMeV] / II: T[dV]P[Sar][NMeV]; ester I:1-I:C, II:1-II:C; linker I:N-II:N via Actinocin(9to1))
[2]
  effect on HE4 levels in SKOV-3: suppressed HE4 levels

## C=C1/C(=C\C=C2/CCC[C@]3(C)[C@@H]([C@H](C)CCCC(C)(C)O)CC[C@@H]23)C[C@@H](O)C[C@@H]1O [Calcitriol]
[2]
  effect on HE4 levels in SKOV-3: upregulated HE4 expression

## COc1cc2ncnc(Nc3ccc(F)c(Cl)c3)c2cc1OCCCN1CCOCC1 [Iressa]
[2]
  effect on HE4 levels in SKOV-3: suppressed HE4 levels

## CC[C@@]1(O)C(=O)OCc2c1cc1n(c2=O)Cc2cc3ccccc3nc2-1 [camptothecin]
[3]; camptothecin, at 1.2 μM
  maximum difference in viability between wild-type cells and HE4C1, -3, -7: ≤ 21%

## COc1cccc2c1C(=O)c1c(O)c3c(c(O)c1C2=O)C[C@@](O)(C(=O)CO)C[C@@H]3O[C@H]1C[C@H](N)[C@H](O)[C@H](C)O1 [doxorubicin]
[4]; Homo sapiens, SK-OV-3, wild-type SKOV-3, 20 μM doxorubicin, untreated = 100%
  viability at 20 µM: 58%
[3]; HE4C1
  viability at 20 µM: 70%
[3]; HE4C3
  viability at 20 µM: 84%
[3]; HE4C7
  viability at 20 µM: 91%

## CC(=O)O[C@H]1C(=O)[C@@]2(C)[C@H]([C@H](OC(=O)c3ccccc3)[C@]3(O)C[C@H](OC(=O)[C@H](O)[C@@H](NC(=O)c4ccccc4)c4ccccc4)C(C)=C1C3(C)C)[C@]1(OC(C)=O)CO[C@@H]1C[C@@H]2O [paclitaxel]
[4]; paclitaxel 6.25, 12.5 or 25 nM, cisplatin 40 or 80 μM
  effect on viability of wild-type SKOV-3 cells: reduced the viability of wild-type SKOV-3 cells drastically
[2]
  effect on HE4 levels in SKOV-3: suppressed HE4 levels
[3]
  response of HE4 overexpressing SKOV-3 clones to drug treatment (viability, words): did not display a significantly altered viability
[3]; listed as Paclitaxel
  response of HE4 overexpressing SKOV-3 clones to drug treatment (viability, words): significantly reduced response

## EGF: epidermal growth factor (NSDSECPLSHDGYCLHDGVCMYIEALDKYACNCVVGYIGERCQYRDLKWWELR; UniProt P01133 971-1023, looked up)
[2]
  effect on HE4 levels in media or cell-lysate of SKOV-3 cells: elevate HE4 levels
[5]
  effect on mRNA expression of HE4 in SKOV-3 cells: did not affect mRNA expression of HE4

## IL-6: cytokine
[2]
  effect on HE4 levels in media or cell-lysate of SKOV-3 cells: suppresses the HE4 levels
[5]
  effect on mRNA expression of HE4 in SKOV-3 cells: did not affect mRNA expression of HE4

## Insulin: growth factor
[2]
  effect on HE4 levels in media or cell-lysate of SKOV-3 cells: elevate HE4 levels
[5]
  effect on mRNA expression of HE4 in SKOV-3 cells: did not affect mRNA expression of HE4

## TNF-a
[2]
  effect on HE4 levels in media or cell-lysate of SKOV-3 cells: does not alter HE4 levels
[5]
  effect on mRNA expression of HE4 in SKOV-3 cells: did not affect mRNA expression of HE4

## Tunicamycin
[2]
  effect on HE4 levels in SKOV-3: suppressed HE4 levels
